Reference: US10245249B2, “Pharmaceutical compositions comprising nitroxyl donors” (Cardioxyl Pharmaceuticals, Inc., priority 2013, dated 2019)

Key:
[1] = HNO production determined via N2O quantification (GC headspace analysis); format: physicochemical; settings: PBS, 37° C.
Text: Nitrous oxide (N2O) is produced via the dimerization and dehydration of HNO, and is the most common marker for nitroxyl production (Fukuto et al., Chem. Res. Toxicol. 18:790-801 (2005)). […] Using either nitrous oxide gas or Angeli's salt (AS) as a standard, the relative amounts of N2O released from compounds of the disclosure was examined via gas chromatography (GC) headspace analysis.
A procedure for determining the relative amounts of N2O released from compounds of the disclosure is as follows. GC was performed on an Agilent gas chromatograph equipped with a split injector (10:1 splitting), microelectron capture detector, and a HP-MOLSIV 30 m×0.32 mm×25 μm molecular sieve capillary column. Helium was used as the carrier (4 mL/min) gas and nitrogen was used as the make-up (20 mL/min) gas. The injector oven and the detector oven were kept at 200° C. and 325° C., respectively. All nitrous oxide analyses were performed with the column oven held at a constant temperature of 200° C.
All gas injections were made using an automated headspace analyzer. Vial pressurization was 15 psi. The analyzer's sample oven, sampling valve, and transfer line were kept at 40° C., 45° C., and 50° C., respectively. The oven stabilization, vial pressurization, loop fill, loop equilibration, and sample injection times were 1.00 min., 0.20 min., 0.20 min., 0.05 min., and 1.00 min., respectively.
All determinations used a batch of nominal 20 mL headspace vials with volumes pre-measured for sample uniformity (actual vial volume varied by <2.0% relative standard deviation (n=6)). The average vial volume for the batch was determined from six randomly-selected vials by calculating the weight difference between the capped and sealed empty (i.e., air-filled) vial and the capped and sealed deionized water-filled vial using the known density of deionized water, then averaging. Blanks were prepared by sealing and capping two vials then purging each for 20 seconds with a gentle argon stream. Nitroxyl standards were prepared by sealing and capping four vials then purging each for 1 minute with a gentle stream, from a gas cylinder, of a 3000 ppm […].
CXL-1020 (N-hydroxy-2-methanesulfonylbenzene-1-sulfonamide) “standards” were prepared by, in duplicate, accurately weighing 10±0.5 mg of CXL-1020 and adding it to each 4 mL vial. Using an auto pipette, 1 mL of argon-purged anhydrous DMF (Sigma-Aldrich) was added to each 4 mL vial to form a CXL-1020 stock solution for each sample and the vials were capped and shaken and/or sonicated to insure complete dissolution upon visual observation. Using an auto pipette, 20 mL vials were charged with 5 mL of PBS (purged for at least 30 min. with argon prior to use), purged with argon for at least 20 sec., and sealed with a rubber septum. Using a 50 μL syringe, 50 μL of the CXL-1020 stock solution was injected into each 20 mL vial containing the PBS.
Samples were prepared as follows. In duplicate, 18±1 mg of each sample was accurately weighed into each 4 mL vial. Using an auto pipette, 1 mL of argon-purged anhydrous DMF was added to each 4 mL vial to form a sample stock solution for each sample and the vials were capped and shaken and/or sonicated to insure complete sample dissolution upon visual observation. Using an auto pipette, 20 mL vials were charged with 5 mL of PBS (purged for at least 30 min. with argon prior to use), purged with argon for at least 20 sec., and sealed with a rubber septum. The vials were equilibrated for at least 10 min. at 37° C. in a dry block heater. Thereafter, using a 50 μL syringe, 50 μL of a sample stock solution was injected into each 20 mL vial containing the PBS. The vials were then held at 37° C. in the dry block heater for a time period such that the sum of the time spent in the dry block heater plus the time spent in the automated headspace analyzer oven before sample injection equaled the desired incubation time. […]

[2] = In vitro stability (half-life) in phosphate buffered saline (PBS) pH 7.4; format: physicochemical; settings: pH 7.4, 5 μM, PBS pH 7.4, 37° C., read-out: T1/2 (minutes) PBS
Method: (§1) Certain compounds from Tables 1 and 2 and CXL-1020 were tested for their stability in phosphate buffered saline (PBS) and plasma. The assay system comprised (i) PBS, or plasma from rat, dog or human (at least 3 donors, male, pooled) at pH 7.4, and (ii) for tests conducted in plasma, an anticoagulant (sodium heparin or sodium citrate). Each test compound (5 μM) was incubated in PBS or plasma at 37° C. on a THERMOMIXER® with shaking. Three samples (n=3) were taken at each of seven sampling time points: 0, 10, 30, 60, 90, 180 and 360 minutes. The samples were immediately combined with 3 volumes (i.e., 3 times the volume of PBS or plasma) of acetonitrile containing 1% formic acid and an internal standard to terminate the reaction. AB SCIEX API 3000 LC-MS/MS analysis of the test compounds was performed without a standard curve. Half-lives (T1/2) of the test compounds were determined from graphs of the percent remaining values using the peak area response ratio. For compounds tested multiple times, the value provided in the Table represents an average of the replicate assays.

[3] = In vitro stability (half-life) in rat plasma; format: in vitro ADME; settings: rat plasma pH 7.4 with anticoagulant, 37° C.; for half-life at 5 μM: male, rat, plasma, pH 7.4, 5 μM, read-out: T1/2 (minutes) Rat
Method: as §1

half-life at 5 μM [2] [min] | half-life at 5 μM [3] [min] | T1/2 (minutes) Rat ([3]; 5 μM) [min] | Compound | Relative N2O Yield (90 minutes incubation) [1] [%] | Relative N2O Yield (360 minutes incubation) [1] [%]
59 | > 360 | – | COc1ccc(Br)cc1S(=O)(=O)NO [Compound 17, 5-Bromo-N-hydroxy-2-methoxybenzene-1-sulfonamide] | 53 | 77
44 | – | – | CCN(CC)C(=O)c1ccc(S(=O)(=O)NO)s1 [Compound 19, N,N-Diethyl-5-(hydroxysulfamoyl)thiophene-2-carboxamide] | 77 | –
– | – | 7 | Cc1ccc(F)cc1S(=O)(=O)NO [Compound 20, 5-Fluoro-N-hydroxy-2-methylbenzene-1-sulfonamide] | 90 | –
66 | – | – | CS(=O)(=O)c1ccc(S(=O)(=O)NO)s1 [Compound 23, N-Hydroxy-5-methanesulfonylthiophene-2-sulfonamide] | – | –
86 | – | – | COc1ccccc1S(=O)(=O)NO [Compound 25, N-Hydroxy-2-methoxybenzene-1-sulfonamide] | 7 | 28
136 | – | – | O=C(c1cc(S(=O)(=O)NO)cs1)N1CCOCC1 [Compound 28, N-Hydroxy-5-(morpholine-4-carbonyl)thiophene-3-sulfonamide] | 74 | –
385 | – | – | Cc1nn(C)c(Cl)c1S(=O)(=O)NO [Compound 30, 5-Chloro-N-hydroxy-1,3-dimethyl-1H-pyrazole-4-sulfonamide] | 27 | –
745 | – | – | Cn1cc(S(=O)(=O)NO)cn1 [Compound 31, N-Hydroxy-1-methyl-1H-pyrazole-4-sulfonamide] | – | –
> 360 | > 360 | – | O=S(=O)(NO)c1ccc(Cl)c(Cl)c1 [Compound 95, 3,4-Dichloro-N-hydroxybenzene-1-sulfonamide] | – | –

The remaining lines, values behind:

Compound | half-life at 5 μM [2] [min] | half-life at 5 μM [3] [min] | T1/2 (minutes) Rat ([3]; 5 μM) [min] | Relative N2O Yield (90 minutes incubation) [1] [%] | Relative N2O Yield (360 minutes incubation) [1] [%]
O=S(=O)(NO)c1cccc2ccoc12 [Compound 4, N-Hydroxy-1-benzofuran-7-sulfonamide] | 149 | – | – | 64 | –
CC(=O)N1CCc2cc(Br)c(S(=O)(=O)NO)cc21 [Compound 9, 1-Acetyl-5-bromo-N-hydroxy-2,3-dihydro-1H-indole-6-sulfonamide] | 2 | > 360 | – | 53 | 71
O=S(=O)(NO)c1cc(CO)ccc1Cl [Compound 10, 2-Chloro-N-hydroxy-5-(hydroxymethyl)benzene-1-sulfonamide] | 5 | – | – | 91 | –
CC(=O)N1CCc2cc(Cl)c(S(=O)(=O)NO)cc21 [Compound 11, 1-Acetyl-5-chloro-N-hydroxy-2,3-dihydro-1H-indole-6-sulfonamide] | 5 | < 5 | – | 55 | 81
O=S(=O)(NO)c1cc(Cl)c(Cl)s1 [Compound 12, 4,5-Dichloro-N-hydroxythiophene-2-sulfonamide] | 20 | – | – | 29 | –
COc1ccc2cc(S(=O)(=O)NO)oc2c1 [Compound 13, N-Hydroxy-6-methoxy-1-benzofuran-2-sulfonamide] | 42 | – | – | 86 | –
Cc1ccc(S(=O)(=O)NO)c(F)c1 [Compound 14, 2-Fluoro-N-hydroxy-4-methylbenzene-1-sulfonamide] | 75 | 13 | – | 48 | 70
O=S(=O)(NO)c1ccc2nsnc2c1 [Compound 15, N-Hydroxy-2,1,3-benzothiadiazole-5-sulfonamide] | 63 | – | – | 59 | 71
CS(=O)(=O)c1csc(S(=O)(=O)NO)c1 [Compound 16, N-Hydroxy-4-methanesulfonylthiophene-2-sulfonamide] | 20 | – | – | 86 | –
